The values that follow come from patent US5712417A, “Inhibitors of retroviral proteases” (Abbott Laboratories, priority 1989, dated 1998).

The structures appear in SMILES notation. Where a name gives a salt, the structure may show the parent alone.

As a reminder, the IC50 is the concentration needed to halve the response being measured.

The target of the first test is T1, HIV protease (Human immunodeficiency virus type 1 group M subtype B, UniProt P04585).
T1 construct: HIV protease consists of 99 amino acids and is evidently split off by itself from the pol polyprotein
Nature of the test: Inhibition of HIV protease (cleavage of H-Ser-Phe-Asn-Phe-Opr-Gln-Ile-OH, HPLC). The class given is biochemical.
Details: not given
The source says: The compounds of the formula (I) according to the invention have enzyme-inhibiting properties. In particular, they inhibit the action of retroviral aspartyl proteases, such as that of HIV protease. Their enzyme-inhibitory action, which is in the milli- to subnanomolar range, can be determined as follows.
The heptapeptide: H-Ser-Phe-Asn-Phe-Pro-Gln-Ile-OH (P. L. Darke et al., Biophys. Res. Commun. 156 (1988) 297-303), inter alia, has hitherto been used as the substrate of HIV protease. HIV protease cleaves the substrate here between the second Phe and Pro.
General instructions for testing inhibitors of HIV proteases: a) Preparation of the substrate solution:
2 mg of H-Ser-Phe-Asn-Phe-Opr-Gln-Ile-OH (H-Opr-OH=5-oxaproline) are dissolved in 1 ml of MGTE15 buffer (use of ultrasound if necessary) and the solution is then filtered over a sterile filter (0.45 μm). […]
b) Preparation of the inhibitor solution:
2.5 times the desired molarity of the inhibitor per ml of solution are weighed out and dissolved in DMSO (10% of the final volume). The solution is diluted to the final volume with MGTE15 buffer and filtered over a sterile filter (0.45 μm). […]
c) Preparation of the protease solution:
5 μl of the HIV protease solution are diluted with MGTE25 buffer as required.
10 μl portions of the substrate solution are pipetted into test-tubes (16×100) with a screw cap. For the blank experiment, 10 μl of MGTE15 buffer containing 10% of DMSO are pipetted into a test-tube. 10 μl portions of the inhibitor solutions are added to the other test-tubes. The mixtures are incubated at 37° C. for 5-10 minutes and 5 μl of the protease solution are then added to each sample, After reaction at 35° C. for 2 hours, 10 or 20 μl (depending on the sensitivity of the HPLC apparatus) of each sample are then pipetted off, introduced into microvials and diluted with 120 μl of the HPLC mobile phase. […]
e) Conditions for the HPLC analysis:
20% (weight/weight) of aceto-
Column: Merck ®LICHROSORB RP18 (5 μm) 250×4
Column temperature: 42° C.
Detector parameters: 215 nm, 0.08 AUF, 18.2° C.
Analysis time: 11 minutes
Retention time of the substrate: 8.1 minutes
Retention time of the N-terminal tetrapeptide: 3.9 minutes
20 mM morpholinoethanesulfonic acid (MES)
15% (weight/volume) of glycerol
0.1% (volume/volume) of Triton ×100
1 mM phenylmethylsulfonyl fluoride (PMSF)
25% (weight/volume) of glycerol, additionally 1 mM dithiothreitol (DTT) The MES, EDTA, NaCl, DTT and PMSF are weighed into a conical flask and dissolved in a little water and the pH is brought to 6. The corresponding amount of glycerol is weighed into a measuring flask and ®Triton ×100 is pipetted in. The aqueous solution is transferred to the measuring flask and made up to the mark with water.
A 0.1M solution is prepared from orthophosphoric acid (FLUKA extra pure analytical grade). This solution is brought to exactly pH 2.5 with triethylamine (FLUKA extra pure analytical grade). The weight of the solution is determined and the corresponding amount of acetonitrile (fume cupboard) is weighed in. The mixture is mixed thoroughly and degassed with helium 5.0 for about 5 minutes.
Under the conditions chosen here, heptapeptides are separated from the N-terminal tetrapeptide formed during enzymatic cleavage. The percentage content of the tetrapeptide peak in respect of the sum of tetrapeptide+heptapeptide corresponds to the cleaving rate. The following IC50 values indicate the inhibitor concentration at which the cleavage rate is halved.
Turning to `CC(C)[C@H](NC(=O)[C@H](Cc1ccccc1)NC(=O)[C@H](COC(C)(C)C)NC(=O)OC(C)(C)C)C(=O)N[C@@H](Cc1ccccc1)[C@@H](O)[C@H](O)[C@H](Cc1ccccc1)NC(=O)[C@@H](NC(=O)[C@H](Cc1ccccc1)NC(=O)[C@H](COC(C)(C)C)NC(=O)OC(C)(C)C)C(C)C` [Example 15, N,N'-bis-(tert.-Butoxycarbonyl-L-(O-tert.-butylseryl)-L-phenylalanyl-L-valyl)-2S,5S-diamino-1,6-diphenyl-hexane-3R,4R-diol], the 50% inhibitory concentration (IC50) was 400 nM.

Staying with this test, now noted: inhibitor concentration at which the cleavage rate is halved; pH 6, 2 hours; read-out: IC50.
`CC(C)[C@H](NC(=O)C(Cc1ccccc1)Cn1ccnc1)C(=O)N[C@@H](Cc1ccccc1)[C@H](O)[C@@H](O)[C@H](Cc1ccccc1)NC(=O)[C@@H](NC(=O)C(Cc1ccccc1)Cn1ccnc1)C(C)C` (single isomer, unassigned) [Example 95, N,N'-bis-<(2-(1-Imidazolylmethyl)-3-phenylpropionyl)-L-valyl->-2S,5S-diamino-1,6-diphenylhexane-3S,4S-diol]: the IC50 was 380 nM.
As for `CC(C)C(NC(=O)C(CN)Cc1ccccc1)C(=O)NC(Cc1ccccc1)C(O)C(O)C(Cc1ccccc1)NC(=O)C(NC(=O)C(CN)Cc1ccccc1)C(C)C` (single isomer, unassigned) [Example 104, N,N'-bis-<(3-Amino-2-benzyl)-propionyl-L-valyl>-2S,5S-diamino-1,6-diphenylhexane-3R,4R-diol dihydrochloride], the IC50 came out at 24 nM.
As for `CC(C)[C@H](NC(=O)C(CNC(=O)OC(C)(C)C)Cc1ccccc1)C(=O)N[C@@H](Cc1ccccc1)[C@@H](O)[C@H](O)[C@H](Cc1ccccc1)NC(=O)[C@@H](NC(=O)C(CNC(=O)OC(C)(C)C)Cc1ccccc1)C(C)C` (single isomer, unassigned) [Example 105, N,N'-bis-<(2-Benzyl-3-tert.-butoxycarbonylamino)-propionyl-L-valyl>-2S,5S-diamino-1,6-diphenylhexane-3R,4R-diol], the concentration for half-maximal inhibition (IC50) is 19 nM.
As for `CC(C)[C@H](NC(=O)[C@H](Cc1ccccc1)NC(=O)OC(C)(C)C)C(=O)N[C@@H](Cc1ccccc1)[C@@H](O)[C@H](O)[C@H](Cc1ccccc1)NC(=O)[C@@H](NC(=O)[C@H](Cc1ccccc1)NC(=O)OC(C)(C)C)C(C)C` [Example 1, N,N,-bis-(tert.-Butoxycarbonyl-L-phenylalanyl-L-valyl)-2S,5S-diamino-1,6-diphenylhexane-3R,4R-diol], the IC50 worked out at 10 nM.
On to `CC(C)[C@H](NC(=O)[C@H](Cc1ccccc1)NC(=O)OC(C)(C)C)C(=O)N[C@@H](Cc1ccccc1)[C@H](O)[C@@H](O)[C@H](Cc1ccccc1)NC(=O)[C@@H](NC(=O)[C@H](Cc1ccccc1)NC(=O)OC(C)(C)C)C(C)C` [Example 6, N,N'-bis-(tert.-Butoxycarbonyl-L-phenylalanyl-L-valyl)-2S,5S-diamino-1,6-diphenylhexane-3S,4S-diol], for which the 50% inhibitory concentration (IC50) is 8.8 nM.
With `CC(C)[C@H](NC(=O)[C@H](Cc1ccccc1)NC(=O)OC(C)(C)C)C(=O)N[C@@H](Cc1ccccc1)[C@H](O)[C@H](O)[C@H](Cc1ccccc1)NC(=O)[C@@H](NC(=O)[C@H](Cc1ccccc1)NC(=O)OC(C)(C)C)C(C)C` [Example 7, N,N'-bis-(tert.-Butoxycarbonyl-L-phenylalanyl-L-valyl)-2S,5S-diamino-1,6-diphenylhexane-3R,4S-diol], the IC50 worked out at 18 nM.
Turning to `CC(C)[C@H](NC(=O)[C@@H](N)CCCCN)C(=O)N[C@@H](Cc1ccccc1)[C@@H](O)[C@H](O)[C@H](Cc1ccccc1)NC(=O)[C@@H](NC(=O)[C@@H](N)CCCCN)C(C)C` [Example 10, N,N'-bis-(L-lysyl-L-valyl)-2S,5S-diamino-1,6-diphenylhexane-3R,4R-diol tetrahydrochloride], the IC50 turned out to be 17 nM.
Still for that read-out and setting: next, `CC(C)[C@H](NC(=O)[C@H](CCCCN)NC(=O)OC(C)(C)C)C(=O)N[C@@H](Cc1ccccc1)[C@@H](O)[C@H](O)[C@H](Cc1ccccc1)NC(=O)[C@@H](NC(=O)[C@H](CCCCN)NC(=O)OC(C)(C)C)C(C)C` [Example 11, N,N'-bis-(Nα-<tert.-Butoxycarbonyl>-L-lysyl-L-valyl)-2S,5S-diamino-1,6-diphenyl-hexane-3R,4R-diol dihydrochloride]: 0.8 nM.
With `CC(C)[C@H](NC(=O)[C@H](Cc1ccccc1)NC(=O)[C@@H](N)CO)C(=O)N[C@@H](Cc1ccccc1)[C@@H](O)[C@H](O)[C@H](Cc1ccccc1)NC(=O)[C@@H](NC(=O)[C@H](Cc1ccccc1)NC(=O)[C@@H](N)CO)C(C)C` [Example 14, N,N'-bis-(L-Seryl-L-phenylalanyl-L-valyl)-2S,5S-diamino-1,6-diphenylhexane-3R,4R-diol dihydrochloride], the half-inhibitory concentration (IC50) was determined as 1 nM.
`CC(C)[C@H](NC(=O)[C@@H](N)Cc1ccccc1)C(=O)N[C@@H](Cc1ccccc1)[C@H](O)[C@@H](O)[C@H](Cc1ccccc1)NC(=O)[C@@H](NC(=O)[C@@H](N)Cc1ccccc1)C(C)C` [Example 17, N,N'-bis-(L-Phenylalanyl-L-valyl)-2S,5S-diamino-1,6-diphenylhexane-3S,4S-diol dihydrochloride]: the IC50 came out at 0.85 nM.
Consider `CC(C)[C@H](NC(=O)[C@H](Cc1ccccc1)NC(=O)[C@@H](N)CO)C(=O)N[C@@H](Cc1ccccc1)[C@H](O)[C@@H](O)[C@H](Cc1ccccc1)NC(=O)[C@@H](NC(=O)[C@H](Cc1ccccc1)NC(=O)[C@@H](N)CO)C(C)C` [Example 19, N,N'-bis-(L-Seryl-L-phenylalanyl-L-valyl)-2S,5S-diamino-1,6-diphenylhexane-3S,4S-diol dihydrochloride], for which the IC50 worked out at 0.7 nM.
On the same count and under the same terms, next, `CC(C)[C@H](NC(=O)[C@@H](N)Cc1ccccc1)C(=O)N[C@H](CNC[C@H](Cc1ccccc1)NC(=O)[C@@H](NC(=O)[C@@H](N)Cc1ccccc1)C(C)C)Cc1ccccc1` [Example 21, Bis-(N-(L-phenylalanyl-L-valyl)-2S-amino-3-phenylpropyl)-amine trihydrochloride]: 220 nM.

The test is the same for the next values; noted with them: inhibitor concentration at which the cleavage rate is halved; unit as printed for Ex. 8; read-out: IC50.
Consider `CC(C)[C@H](NC(=O)OC(C)(C)C)C(=O)N[C@@H](Cc1ccccc1)[C@H](O)[C@@H](O)[C@H](Cc1ccccc1)NC(=O)[C@@H](NC(=O)OC(C)(C)C)C(C)C` [Example 8, N,N'-bis-(tert.-Butoxycarbonyl-L-valyl)-2S,5S-diamino-1,6-diphenylhexane-3S,4S-diol], for which the half-maximal inhibitory concentration (IC50) is 30000 nM.

Staying with this test, now noted: inhibitor concentration at which the cleavage rate is halved; unit as printed for Ex. 13; read-out: IC50.
Regarding `CC(C)[C@H](NC(=O)[C@H](Cc1cccc2ccccc12)CS(=O)(=O)C(C)(C)C)C(=O)N[C@@H](Cc1ccccc1)[C@@H](O)[C@H](O)[C@H](Cc1ccccc1)NC(=O)[C@@H](NC(=O)[C@H](Cc1cccc2ccccc12)CS(=O)(=O)C(C)(C)C)C(C)C` [Example 13, N,N'-bis-<(2S-(1,1-Dimethylethylsulfonylmethyl)-3-(1-naphthyl)-propionyl)-L-valyl>-2S,5S-diamino-1,6-diphenylhexane-3R,4R-diol], the IC50 was found to be 1.3 nM.

Still in this test, the particulars now being: read-out: IC50.
`CC(C)(C)OC(=O)N[C@@H](Cc1ccccc1)[C@H](O)[C@H](O)[C@H](Cc1ccccc1)NC(=O)OC(C)(C)C` [Example 5, N,N'-bis-(tert.-Butoxycarbonyl)-2S,5S-diamino-1,6-diphenylhexane-3R,4S-diol]: the IC50 came out at 3600 nM.
For the molecule `CC(C)[C@H](NC(=O)[C@@H](N)Cc1ccccc1)C(=O)N[C@@H](Cc1ccccc1)[C@H](O)[C@H](O)[C@H](Cc1ccccc1)NC(=O)[C@@H](NC(=O)[C@@H](N)Cc1ccccc1)C(C)C` [Example 18, N,N'-bis-(L-Phenylalanyl-L-valyl)-2S,5S-diamino-1,6-diphenylhexane-3R,4S-diol dihydrochloride], the IC50 was 1.2 nM.
